ChEMBL document CHEMBL1201862, “PubChem BioAssay data set” (2004)
Calls of active or inactive are those of the source.

Key:
[1] = biological target: T1, Mannose-6-phosphate isomerase (Homo sapiens, UniProt P34949); assay: PMI enzyme inhibitors, confirmation, biochemical, fluorescence intensity (AID 1535)
T1 sequence (P34949 whole entry): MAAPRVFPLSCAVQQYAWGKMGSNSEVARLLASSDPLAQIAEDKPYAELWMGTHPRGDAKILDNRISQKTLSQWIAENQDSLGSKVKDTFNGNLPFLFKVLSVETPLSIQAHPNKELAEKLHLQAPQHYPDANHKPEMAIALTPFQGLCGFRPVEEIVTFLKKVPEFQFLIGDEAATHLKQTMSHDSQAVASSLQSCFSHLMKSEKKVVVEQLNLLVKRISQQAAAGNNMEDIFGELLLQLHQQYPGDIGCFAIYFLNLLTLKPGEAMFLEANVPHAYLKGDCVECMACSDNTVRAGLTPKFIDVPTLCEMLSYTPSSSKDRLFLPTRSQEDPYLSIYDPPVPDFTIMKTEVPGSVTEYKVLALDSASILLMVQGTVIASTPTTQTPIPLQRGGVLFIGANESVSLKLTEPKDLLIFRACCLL

[2] = biological target: T2, Mitochondrial peptide methionine sulfoxide reductase (Bos taurus, UniProt P54149); assay: Absorbance-based biochemical high throughput dose response assay for activators of Methionine sulfoxide reductase A (MsrA).; type: functional
T2 sequence (P54149 whole entry): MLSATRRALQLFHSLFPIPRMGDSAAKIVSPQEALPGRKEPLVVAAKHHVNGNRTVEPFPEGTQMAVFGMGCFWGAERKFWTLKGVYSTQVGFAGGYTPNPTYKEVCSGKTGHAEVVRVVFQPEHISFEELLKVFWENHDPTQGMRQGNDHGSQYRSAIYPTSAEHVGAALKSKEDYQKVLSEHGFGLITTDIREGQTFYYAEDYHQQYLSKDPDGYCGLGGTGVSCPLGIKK

[3] = biological target: T1, Mannose-6-phosphate isomerase; assay: inhibitors of human PMI, primary screen, biochemical, fluorescence intensity, coupled assay (AID 1209)
Phosphomannomutase 2 = Phosphomannomutase 2 (Homo sapiens, UniProt O15305); assay: Counter screen SAR assay for PMM2 inhibitors via a fluorescence intensity assay. [Related pubchem assays (depositor defined):AID1545, AID1574]
[4] = inhibitors of Bluetongue virus cytopathic effect, confirmation, arbovirus, BSR cells (AID 1250); type: functional;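 also: protection from viral cytopathic effect measured as cell viability by ATP luminescence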
[5] = M. tuberculosis H37Rv growth inhibitors, H37Rv strain (AID 1626); type: functional
[6] = A High Throughput Confirmatory Assay used to Identify Novel Compounds that Inhibit Mycobacterium Tuberculosis in the absence of Glycerol.; type: functional
Melanocortin receptor 4 = Melanocortin receptor 4 (Homo sapiens, UniProt P32245); assay: MC4R antagonist potency on cAMP, dose response, cell-based, TR-FRET, biased antagonists (AID 602298); type: functional;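 also: antagonist potency against agonist-stimulated cAMP production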
[7] = nonselective inhibitors of cellular cAMP signaling, dose response, counter-screen for MC4R biased antagonist project, cell-based, TR-FRET cAMP detection (AID 602305); type: functional;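 also: U2OS cells stimulated with forskolin near its EC80 as the cAMP inducer; potency is for inhibition of forskolin-stimulated cAMP signaling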
NS3 = NS3 (Hepatitis C virus, UniProt A3EZJ3); assay: PubChem AID 2173; parameters: species or system Hepacivirus hominis
[8] = inhibitors of intracellular T. cruzi replication, confirmation, NIH3T3 host cells, beta-gal luminescence (AID 2044); type: functional, cell-based;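 also: intracellular parasites grown in NIH/3T3 mouse fibroblasts as host cells; luminescent beta-galactosidase reporter signal from transgenic T. cruzi replicating inside host cells; inhibitors lower the luminescence signal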
[9] = Luminescence Cell-Based Secondary HTS screen to identify cytotoxic compounds of NIH3T3 cells. [Related pubchem assays: 1885, 1968 ]; type: functional
[10] = cytotoxicity toward NIH3T3 fibroblasts, dose response, counter-screen, cell-based, ATP luminescence, mouse fibroblasts (AID 2010); type: functional;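 also: cells exposed to compound for about 90 hours before reading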
[11] = Luminescence Cell-Based/Microorganism Confirmation at Dose of Inhibitors of Trypanosoma cruzi Infection. [Related pubchem assays: 1885, 1968 ]; type: functional
[12] = biological target: T3, Short transient receptor potential channel 4 (Mus musculus, UniProt Q9QUQ5); assay: mouse TRPC4 channel inhibitors, dose response, cell-based, HEK293 TRPC4/mu-opioid, Fluo-4 calcium (AID 434942); type: functional;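 also: potency of inhibitors blocking the TRPC4 calcium response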
T3 sequence (Q9QUQ5 whole entry): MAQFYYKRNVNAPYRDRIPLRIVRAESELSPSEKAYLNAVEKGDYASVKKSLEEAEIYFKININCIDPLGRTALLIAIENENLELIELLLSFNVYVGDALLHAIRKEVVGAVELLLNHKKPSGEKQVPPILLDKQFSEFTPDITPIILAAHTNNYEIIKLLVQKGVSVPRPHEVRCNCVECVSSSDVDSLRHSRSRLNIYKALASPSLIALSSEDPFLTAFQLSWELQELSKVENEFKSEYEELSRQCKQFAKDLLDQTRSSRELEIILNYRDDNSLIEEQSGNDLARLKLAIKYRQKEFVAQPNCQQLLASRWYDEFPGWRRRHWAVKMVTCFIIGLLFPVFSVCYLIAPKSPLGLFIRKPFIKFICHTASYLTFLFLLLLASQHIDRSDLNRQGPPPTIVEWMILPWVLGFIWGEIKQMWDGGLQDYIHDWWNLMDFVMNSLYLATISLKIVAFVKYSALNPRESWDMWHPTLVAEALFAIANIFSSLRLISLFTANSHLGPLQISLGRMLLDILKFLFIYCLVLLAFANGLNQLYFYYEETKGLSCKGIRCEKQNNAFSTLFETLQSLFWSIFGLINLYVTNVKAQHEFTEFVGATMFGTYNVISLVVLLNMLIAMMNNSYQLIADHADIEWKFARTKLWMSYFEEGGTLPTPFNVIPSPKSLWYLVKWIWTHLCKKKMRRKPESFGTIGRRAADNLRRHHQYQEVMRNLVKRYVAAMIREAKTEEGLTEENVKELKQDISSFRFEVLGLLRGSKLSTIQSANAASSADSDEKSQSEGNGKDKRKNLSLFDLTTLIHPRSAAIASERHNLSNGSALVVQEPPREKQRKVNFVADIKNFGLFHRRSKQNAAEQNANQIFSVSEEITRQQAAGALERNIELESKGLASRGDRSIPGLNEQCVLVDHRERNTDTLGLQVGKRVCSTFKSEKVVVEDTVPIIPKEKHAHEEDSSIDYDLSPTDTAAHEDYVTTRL

Wee1-like protein kinase = Wee1-like protein kinase (Homo sapiens, UniProt P30291); assay: Dose Response Cell-based Assay for Inhibitors of Wee1 Degradation. [Related pubchem assays: 1410, 1321 ]; type: functional
[13] = biological target: G2/mitotic-specific cyclin-B1 (Homo sapiens, UniProt P14635); assay: Counterscreen assay for inhibitors of Wee1 degradation: dose response cell-based assay to identify inhibitors of cyclin B degradation. [Related pubchem assays: 1410, 1321 ]; type: functional
[14] = Luminescence Cell-Based Dose Confirmation HTS to Identify Activators of 5'UTR Stem-Loop Driven Alpha-Synuclein mRNA Translation in H4 Neuroglioblastoma Cells. [Related pubchem assays: 1829 (Project Summary), 1814 (Primary HTS)]; type: functional
[15] = Luminescence Cell-Based Dose Response HTS to Identify Activators of Luciferase Translation or Activity in H4 […] Cells. [Related pubchem assays: 1829 (Project Summary), 1814 (Primary HTS)]; type: functional
H4 = assay: Luminescence Cell-Based Dose Response HTS to Identify Activators of 5'UTR Stem-Loop Driven Prion Protein mRNA Translation in H4 Neuroglioblastoma Cells. [Related pubchem assays: 1829 (Project Summary), 1814 (Primary HTS)]; type: functional; settings: Homo sapiens
[16] = biological target: T2, Mitochondrial peptide methionine sulfoxide reductase; type: functional
Procathepsin L = Procathepsin L (Homo sapiens, UniProt P07711); assay: cathepsin L inhibitors, dose response, counter-screen for M1/M17 aminopeptidase inhibitor project, biochemical, QFRET, 1536-well (AID 2214)
Aspartyl aminopeptidase = biological target: T4, Aspartyl aminopeptidase (Plasmodium falciparum 3D7, UniProt Q8I2J3); assay: Counterscreen for inhibitors of M1 and M17 aminopeptidases: QFRET-based biochemical high throughput dose response assay for inhibitors of the Plasmodium falciparum M18 Aspartyl Aminopeptidase (PFM18AAP). [Related PubChem assays: 1619 (Screening assay (M17LAP inhibitors).), 1445 (Screening assay (M1AAP inhibitors).)]
T4 sequence (Q8I2J3 whole entry): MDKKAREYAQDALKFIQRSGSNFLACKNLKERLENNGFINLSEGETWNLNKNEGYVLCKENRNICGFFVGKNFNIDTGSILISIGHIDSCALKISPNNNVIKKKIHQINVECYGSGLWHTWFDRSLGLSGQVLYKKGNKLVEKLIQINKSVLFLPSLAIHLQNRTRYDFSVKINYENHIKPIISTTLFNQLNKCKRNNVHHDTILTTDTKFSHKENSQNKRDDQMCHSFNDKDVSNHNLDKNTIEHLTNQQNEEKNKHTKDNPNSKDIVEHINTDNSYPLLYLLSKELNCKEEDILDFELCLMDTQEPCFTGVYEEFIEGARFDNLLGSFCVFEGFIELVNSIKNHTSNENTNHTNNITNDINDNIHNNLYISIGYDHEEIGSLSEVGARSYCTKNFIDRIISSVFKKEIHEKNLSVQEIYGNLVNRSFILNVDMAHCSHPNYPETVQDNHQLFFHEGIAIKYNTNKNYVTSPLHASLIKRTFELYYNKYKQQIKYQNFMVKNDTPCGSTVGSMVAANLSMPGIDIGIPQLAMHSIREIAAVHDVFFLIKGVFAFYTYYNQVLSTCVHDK

Cytochrome P450 2C9 = Cytochrome P450 2C9 (Homo sapiens, UniProt P11712)
Cytochrome P450 2C19 = Cytochrome P450 2C19 (Homo sapiens, UniProt P33261); assay: Cytochrome panel assay with activity outcomes. Panel member name: p450-cyp2c19 Compounds with AC50 equal or less than 10 uM are considered active; type: functional; settings: read-out: AC50
Leucine aminopeptidase = biological target: T5, Leucine aminopeptidase (Plasmodium falciparum 3D7, UniProt Q8IL11); assay: P. falciparum M17LAP inhibitors, primary screen, biochemical, fluorogenic H-Leu-NHMec substrate, 1536-well (AID 1619); type: functional
T5 sequence (Q8IL11 whole entry): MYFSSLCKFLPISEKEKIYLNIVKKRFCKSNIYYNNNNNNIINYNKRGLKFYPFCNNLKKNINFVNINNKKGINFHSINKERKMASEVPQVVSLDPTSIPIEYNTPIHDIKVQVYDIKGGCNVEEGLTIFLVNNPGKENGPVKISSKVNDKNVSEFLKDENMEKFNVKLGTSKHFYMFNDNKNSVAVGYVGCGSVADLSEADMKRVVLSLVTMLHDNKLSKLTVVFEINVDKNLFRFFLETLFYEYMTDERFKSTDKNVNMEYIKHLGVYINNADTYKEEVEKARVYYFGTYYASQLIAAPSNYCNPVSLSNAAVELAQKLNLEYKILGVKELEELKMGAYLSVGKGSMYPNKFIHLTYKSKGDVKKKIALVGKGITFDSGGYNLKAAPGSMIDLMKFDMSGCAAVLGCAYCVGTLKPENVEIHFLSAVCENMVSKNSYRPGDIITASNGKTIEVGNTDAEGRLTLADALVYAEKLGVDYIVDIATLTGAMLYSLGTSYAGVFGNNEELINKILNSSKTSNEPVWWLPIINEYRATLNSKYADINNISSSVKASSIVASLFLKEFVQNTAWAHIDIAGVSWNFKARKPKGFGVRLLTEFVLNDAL

Bcl-2-like protein 10 = biological target: T6, Bcl-2-like protein 10 (Homo sapiens, UniProt Q9HD36); assay: Biochemical TR3 FP assay of Bcl-B inhibitor potency, EC50 (AID 1243); type: functional
T6 sequence (Q9HD36 whole entry): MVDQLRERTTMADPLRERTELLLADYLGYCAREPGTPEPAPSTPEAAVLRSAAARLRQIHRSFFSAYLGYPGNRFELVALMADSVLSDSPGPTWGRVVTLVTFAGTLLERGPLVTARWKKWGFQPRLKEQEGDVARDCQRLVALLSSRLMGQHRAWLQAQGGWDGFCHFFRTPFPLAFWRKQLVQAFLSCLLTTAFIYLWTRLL

Sequence of Procathepsin L (P07711 whole entry): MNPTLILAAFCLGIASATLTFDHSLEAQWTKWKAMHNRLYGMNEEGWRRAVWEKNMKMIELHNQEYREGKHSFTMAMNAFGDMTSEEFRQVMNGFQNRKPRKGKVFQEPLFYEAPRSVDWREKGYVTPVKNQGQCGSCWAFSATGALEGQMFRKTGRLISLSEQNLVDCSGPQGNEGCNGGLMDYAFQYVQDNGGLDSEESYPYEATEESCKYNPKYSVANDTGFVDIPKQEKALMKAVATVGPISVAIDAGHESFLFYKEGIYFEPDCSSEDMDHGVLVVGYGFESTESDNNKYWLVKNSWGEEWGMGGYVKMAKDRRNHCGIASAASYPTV
Sequence of G2/mitotic-specific cyclin-B1 (P14635 whole entry): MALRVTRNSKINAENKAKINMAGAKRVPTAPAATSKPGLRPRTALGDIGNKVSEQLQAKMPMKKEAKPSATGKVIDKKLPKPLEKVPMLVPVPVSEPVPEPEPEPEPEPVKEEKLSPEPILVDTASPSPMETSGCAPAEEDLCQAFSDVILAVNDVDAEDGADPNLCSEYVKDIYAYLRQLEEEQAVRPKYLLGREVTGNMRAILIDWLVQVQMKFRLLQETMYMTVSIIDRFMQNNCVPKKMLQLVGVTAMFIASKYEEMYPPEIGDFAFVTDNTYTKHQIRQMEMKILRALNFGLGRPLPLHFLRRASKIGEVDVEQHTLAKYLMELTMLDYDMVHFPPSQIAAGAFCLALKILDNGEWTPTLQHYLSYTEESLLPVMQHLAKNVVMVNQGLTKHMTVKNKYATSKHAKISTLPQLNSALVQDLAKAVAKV
Sequence of Phosphomannomutase 2 (O15305 whole entry): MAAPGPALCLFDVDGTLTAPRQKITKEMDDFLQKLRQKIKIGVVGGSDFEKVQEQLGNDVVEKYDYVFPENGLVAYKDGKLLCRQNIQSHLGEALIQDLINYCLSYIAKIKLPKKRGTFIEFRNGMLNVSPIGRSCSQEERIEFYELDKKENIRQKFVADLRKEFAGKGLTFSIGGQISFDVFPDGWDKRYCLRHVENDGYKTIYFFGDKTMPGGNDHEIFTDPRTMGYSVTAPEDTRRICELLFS
Sequence of Cytochrome P450 2C9 (P11712 whole entry): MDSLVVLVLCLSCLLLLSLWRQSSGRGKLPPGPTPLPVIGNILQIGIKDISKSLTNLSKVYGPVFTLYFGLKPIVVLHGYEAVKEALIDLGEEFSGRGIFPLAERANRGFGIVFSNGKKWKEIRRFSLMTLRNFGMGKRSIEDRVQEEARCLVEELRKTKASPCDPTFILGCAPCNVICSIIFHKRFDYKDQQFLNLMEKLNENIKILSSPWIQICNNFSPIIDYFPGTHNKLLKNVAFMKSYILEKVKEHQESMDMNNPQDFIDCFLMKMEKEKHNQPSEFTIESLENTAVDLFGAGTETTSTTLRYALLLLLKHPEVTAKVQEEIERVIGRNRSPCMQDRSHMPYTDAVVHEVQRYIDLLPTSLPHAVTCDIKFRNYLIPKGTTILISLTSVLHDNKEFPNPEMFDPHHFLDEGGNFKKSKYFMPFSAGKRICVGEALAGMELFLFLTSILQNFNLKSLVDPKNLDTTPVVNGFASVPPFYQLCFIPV
Sequence of Wee1-like protein kinase (P30291 whole entry): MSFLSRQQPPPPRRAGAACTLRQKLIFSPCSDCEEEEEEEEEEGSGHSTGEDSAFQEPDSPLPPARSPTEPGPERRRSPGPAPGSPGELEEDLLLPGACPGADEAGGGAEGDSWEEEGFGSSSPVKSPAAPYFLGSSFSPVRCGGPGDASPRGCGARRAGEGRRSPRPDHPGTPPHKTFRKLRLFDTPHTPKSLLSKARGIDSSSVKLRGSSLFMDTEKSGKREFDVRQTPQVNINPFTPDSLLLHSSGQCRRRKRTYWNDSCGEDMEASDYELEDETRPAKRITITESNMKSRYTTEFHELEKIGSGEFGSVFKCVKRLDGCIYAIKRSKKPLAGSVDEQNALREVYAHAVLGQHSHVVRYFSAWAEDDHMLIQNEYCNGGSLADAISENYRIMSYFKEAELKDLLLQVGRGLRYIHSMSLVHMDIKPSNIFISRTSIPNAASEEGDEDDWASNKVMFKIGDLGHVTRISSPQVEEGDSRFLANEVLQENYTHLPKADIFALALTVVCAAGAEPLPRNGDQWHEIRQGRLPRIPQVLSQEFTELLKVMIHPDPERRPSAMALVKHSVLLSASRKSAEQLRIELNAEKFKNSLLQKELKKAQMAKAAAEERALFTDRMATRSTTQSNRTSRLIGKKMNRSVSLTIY
Sequence of Cytochrome P450 2C19 (P33261 whole entry): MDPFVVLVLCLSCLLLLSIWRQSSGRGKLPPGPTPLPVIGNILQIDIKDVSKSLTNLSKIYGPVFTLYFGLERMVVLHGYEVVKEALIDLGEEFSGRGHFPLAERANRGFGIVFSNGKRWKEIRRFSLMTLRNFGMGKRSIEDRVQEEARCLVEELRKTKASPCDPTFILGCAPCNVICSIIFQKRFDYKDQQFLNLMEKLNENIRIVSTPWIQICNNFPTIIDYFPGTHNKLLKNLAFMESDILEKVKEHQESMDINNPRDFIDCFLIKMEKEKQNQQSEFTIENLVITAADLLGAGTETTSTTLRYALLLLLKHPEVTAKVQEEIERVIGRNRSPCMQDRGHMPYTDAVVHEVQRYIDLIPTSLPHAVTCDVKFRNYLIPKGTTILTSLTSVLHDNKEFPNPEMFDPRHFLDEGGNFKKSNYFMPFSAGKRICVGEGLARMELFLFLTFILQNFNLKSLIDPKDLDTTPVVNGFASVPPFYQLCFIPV
Sequence of Melanocortin receptor 4 (P32245 whole entry): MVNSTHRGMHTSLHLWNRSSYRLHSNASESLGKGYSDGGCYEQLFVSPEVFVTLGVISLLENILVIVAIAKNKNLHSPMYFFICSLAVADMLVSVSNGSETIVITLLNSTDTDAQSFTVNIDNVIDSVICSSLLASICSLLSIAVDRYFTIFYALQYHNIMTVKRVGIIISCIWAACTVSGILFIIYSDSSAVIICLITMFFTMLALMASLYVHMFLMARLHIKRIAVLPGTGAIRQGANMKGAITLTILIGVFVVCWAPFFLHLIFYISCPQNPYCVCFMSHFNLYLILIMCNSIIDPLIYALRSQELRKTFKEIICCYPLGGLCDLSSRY
Sequence of NS3 (A3EZJ3 whole entry): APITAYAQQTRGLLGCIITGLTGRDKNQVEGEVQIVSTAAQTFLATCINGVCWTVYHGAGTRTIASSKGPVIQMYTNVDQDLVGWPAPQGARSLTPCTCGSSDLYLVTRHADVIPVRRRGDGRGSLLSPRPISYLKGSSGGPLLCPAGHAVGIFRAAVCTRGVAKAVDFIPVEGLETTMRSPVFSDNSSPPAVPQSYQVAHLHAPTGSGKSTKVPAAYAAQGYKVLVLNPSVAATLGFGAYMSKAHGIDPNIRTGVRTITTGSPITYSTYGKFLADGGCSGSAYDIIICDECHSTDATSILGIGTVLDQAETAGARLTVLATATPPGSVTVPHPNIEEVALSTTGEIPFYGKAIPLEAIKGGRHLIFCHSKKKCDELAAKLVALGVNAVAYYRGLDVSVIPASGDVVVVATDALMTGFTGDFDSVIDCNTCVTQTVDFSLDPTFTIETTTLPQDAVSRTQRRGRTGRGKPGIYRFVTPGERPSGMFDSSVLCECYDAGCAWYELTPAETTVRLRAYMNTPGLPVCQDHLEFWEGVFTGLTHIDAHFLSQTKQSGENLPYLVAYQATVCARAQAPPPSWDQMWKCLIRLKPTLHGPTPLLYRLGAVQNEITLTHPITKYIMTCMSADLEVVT

For `Sc1n[nH]c(-c2cccc(Br)c2)n1`, the IC50 [1] was 6.15 µM (active), the EC50 [2] was > 104 µM (inactive) and the IC50 [3] was 14.5 µM (active). For the same compound, the IC50 (Phosphomannomutase 2) was > 100 µM (inactive).

In the case of `CC(C)CCOc1ccc(/C=C2\CCn3c2nc2cc(C(=O)O)ccc2c3=O)cc1`, the IC50 [4] is reported as 32.2 µM (active).

In the case of `Nc1cc(O)nc(SCC(=O)Nc2ccccc2-c2ccccc2)n1`, the IC50 [5] is reported as > 100 µM (active).

With `CN1CCN(C(=O)/C=C/c2cn(-c3ccccc3)nc2-c2ccc3c(c2)OCCO3)CC1` the IC50 [6] was > 100 µM (active), the IC50 (Melanocortin receptor 4) was > 64.6 µM (inactive) and the IC50 [7] was > 64.6 µM (inactive).

With `COc1ccc(OC)c(C2CC(=O)N3CN(c4ccccc4F)CSC3=C2C#N)c1` (stereo not drawn) the IC50 (NS3) was 6.77 µM (active).

With `CC(C)Oc1cccc(C(=O)C2CCCN(Cc3cnn(C(C)C)c3)C2)c1` (stereo not drawn) the EC50 [8] was < 0.1 µM (active), the EC50 [9] was > 195 µM (not active) and the EC50 (cells) was 0.039 µM (active). For the same compound, the EC50 [10] was > 60 µM (not active), the EC50 [11] was 0.068 µM (active) and the EC50 [12] was 2.11 µM (active).

With `COc1cccc(C2=CC(c3cccc(OC)c3OC)n3nnnc3N2)c1` (stereo not drawn) the EC50 (Wee1-like protein kinase) was > 49.7 µM (not active), the EC50 [13] was > 49.7 µM (not active) and the EC50 [14] was 26.1 µM (active). The EC50 [15] was 17 µM (active), the EC50 (H4) was 13.1 µM (active) and the IC50 [16] was 155 µM (inactive).

In the case of `COc1ccc(NC(=O)CSC2=NC(=O)CC(C)=N2)cc1`, the IC50 (Procathepsin L) is reported as > 59.6 µM (not active), the IC50 (Aspartyl aminopeptidase) is reported as > 73.5 µM (not active) and the AC50 (Cytochrome P450 2C9) is reported as 25.1 µM (inconclusive). The AC50 (Cytochrome P450 2C19) was 15.8 µM (inconclusive) and the IC50 (Leucine aminopeptidase) was 3.09 µM (active).

In the case of `O=C(O)C1Nc2c(C(=O)N3CCCC3)cccc2C2C=CCC12` (stereo not drawn), the EC50 (Bcl-2-like protein 10) is reported as 4.95 µM (active).
